{
  "source": "paper PMC11392244",
  "about": "“Characterization of a unique catechol-O-methyltransferase as a molecular drug target in parasitic filarial nematodes” (PLOS Neglected Tropical Diseases, 2024)",
  "key": {"[1]": {"test_system": "DiMT protein", "type": "biochemical, Dirofilaria immitis", "conditions": "for IC50: read-out: IC 50 (μM ± SEM)"}, "[2]": {"test_system": "D. immitis microfilariae", "experiment": "In vitro efficacy against live D. immitis microfilariae (motility, completely immotile %)", "type": "cell-based, Dirofilaria immitis", "conditions": "for Completely Immotile Microfilariae (%): single replicate; for effect on microfilariae: up to 120 h of culture"}},
  "note": "Where “and” joins values, the source holds several entries; their conditions need not be identical. Identical values can stand only once. Like-named read-outs stand apart in the source and are kept apart here.",
  "data": [
    {"smiles": "COc1ccc(-c2c(C)c(C(=O)O)nc(-c3ccc4c(O)c(OC)c5c(c4n3)=NC(C)(C)N=5)c2N)c(O)c1OC", "note": "[NSC62709]", "values": [
      {"measurement": "Mean Percent Inhibition", "setting": "[1]; 40 µM", "result": "32.1% and 22.9% and 27.7%"},
      {"measurement": "Mean Percent Inhibition, Average", "setting": "[1]; 40 µM", "result": 27.6, "unit": "%"},
      {"measurement": "Mean Percent Inhibition", "setting": "[1]; 80 µM", "result": "63.8% and 49.7% and 46.2%"},
      {"measurement": "Mean Percent Inhibition, Average", "setting": "[1]; 80 µM", "result": 53.2, "unit": "%"},
      {"measurement": "Mean Percent Inhibition", "setting": "[1]; 120 µM", "result": "65.7% and 71.6% and 62.3%"},
      {"measurement": "Mean Percent Inhibition, Average", "setting": "[1]; 120 µM", "result": 66.5, "unit": "%"},
      {"measurement": "Mean Percent Inhibition", "setting": "[1]; 140 µM", "result": "72.8% and 64.4% and 72.4%"},
      {"measurement": "Mean Percent Inhibition, Average", "setting": "[1]; 140 µM", "result": 69.9, "unit": "%"},
      {"measurement": "Mean Percent Inhibition", "setting": "[1]; 180 µM", "result": "81.5% and 69.4% and 74.5%"},
      {"measurement": "Mean Percent Inhibition, Average", "setting": "[1]; 180 µM", "result": 75.1, "unit": "%"},
      {"measurement": "IC50", "setting": "[1]", "result": "76.2 ± 1.7", "unit": "µM"},
      {"measurement": "Mean completely Immotile (%)", "setting": "[2]; 50 µM, 0 h", "result": 0, "unit": "%"},
      {"measurement": "Completely Immotile Microfilariae (%)", "setting": "[2]; 50 µM, 0 h", "result": 0, "unit": "%"},
      {"measurement": "Mean completely Immotile (%)", "setting": "[2]; 50 µM, 24 h", "result": 1.67, "unit": "%"},
      {"measurement": "Completely Immotile Microfilariae (%)", "setting": "[2]; 50 µM, 24 h", "result": "1% and 2% (2×)"},
      {"measurement": "Mean completely Immotile (%)", "setting": "[2]; 50 µM, 48 h", "result": 3.33, "unit": "%"},
      {"measurement": "Completely Immotile Microfilariae (%)", "setting": "[2]; 50 µM, 48 h", "result": "3% (2×) and 4%"},
      {"measurement": "Mean completely Immotile (%)", "setting": "[2]; 50 µM, 72 h", "result": 5.67, "unit": "%"},
      {"measurement": "Completely Immotile Microfilariae (%)", "setting": "[2]; 50 µM, 72 h", "result": "5% (2×) and 7%"},
      {"measurement": "Mean completely Immotile (%)", "setting": "[2]; 50 µM, 96 h", "result": 7.33, "unit": "%"},
      {"measurement": "Completely Immotile Microfilariae (%)", "setting": "[2]; 50 µM, 96 h", "result": "7% and 9% and 6%"},
      {"measurement": "Mean completely Immotile (%)", "setting": "[2]; 50 µM, 120 h", "result": 14, "unit": "%"},
      {"measurement": "Completely Immotile Microfilariae (%)", "setting": "[2]; 50 µM, 120 h", "result": "12% and 14% and 16%"},
      {"measurement": "Mean completely Immotile (%)", "setting": "[2]; 100 µM, 0 h", "result": 0, "unit": "%"},
      {"measurement": "Completely Immotile Microfilariae (%)", "setting": "[2]; 100 µM, 0 h", "result": 0, "unit": "%"},
      {"measurement": "Mean completely Immotile (%)", "setting": "[2]; 100 µM, 24 h", "result": 3.67, "unit": "%"},
      {"measurement": "Completely Immotile Microfilariae (%)", "setting": "[2]; 100 µM, 24 h", "result": "3% (2×) and 5%"},
      {"measurement": "Mean completely Immotile (%)", "setting": "[2]; 100 µM, 48 h", "result": 7, "unit": "%"},
      {"measurement": "Completely Immotile Microfilariae (%)", "setting": "[2]; 100 µM, 48 h", "result": "7% and 6% and 8%"},
      {"measurement": "Mean completely Immotile (%)", "setting": "[2]; 100 µM, 72 h", "result": 9.33, "unit": "%"},
      {"measurement": "Completely Immotile Microfilariae (%)", "setting": "[2]; 100 µM, 72 h", "result": "9% (2×) and 10%"},
      {"measurement": "Mean completely Immotile (%)", "setting": "[2]; 100 µM, 96 h", "result": 12.33, "unit": "%"},
      {"measurement": "Completely Immotile Microfilariae (%)", "setting": "[2]; 100 µM, 96 h", "result": "10% and 12% and 15%"},
      {"measurement": "Mean completely Immotile (%)", "setting": "[2]; 100 µM, 120 h", "result": 17, "unit": "%"},
      {"measurement": "Completely Immotile Microfilariae (%)", "setting": "[2]; 100 µM, 120 h", "result": "15% and 17% and 19%"},
      {"measurement": "Mean completely Immotile (%)", "setting": "[2]; 150 µM, 0 h", "result": 0, "unit": "%"},
      {"measurement": "Completely Immotile Microfilariae (%)", "setting": "[2]; 150 µM, 0 h", "result": 0, "unit": "%"},
      {"measurement": "Mean completely Immotile (%)", "setting": "[2]; 150 µM, 24 h", "result": 4.67, "unit": "%"},
      {"measurement": "Completely Immotile Microfilariae (%)", "setting": "[2]; 150 µM, 24 h", "result": "5% (2×) and 4%"},
      {"measurement": "Mean completely Immotile (%)", "setting": "[2]; 150 µM, 48 h", "result": 8.67, "unit": "%"},
      {"measurement": "Completely Immotile Microfilariae (%)", "setting": "[2]; 150 µM, 48 h", "result": "9% and 6% and 11%"},
      {"measurement": "Mean completely Immotile (%)", "setting": "[2]; 150 µM, 72 h", "result": 12.33, "unit": "%"},
      {"measurement": "Completely Immotile Microfilariae (%)", "setting": "[2]; 150 µM, 72 h", "result": "12% and 11% and 14%"},
      {"measurement": "Mean completely Immotile (%)", "setting": "[2]; 150 µM, 96 h", "result": 14.67, "unit": "%"},
      {"measurement": "Completely Immotile Microfilariae (%)", "setting": "[2]; 150 µM, 96 h", "result": "13% and 14% and 17%"},
      {"measurement": "Mean completely Immotile (%)", "setting": "[2]; 150 µM, 120 h", "result": 21.33, "unit": "%"},
      {"measurement": "Completely Immotile Microfilariae (%)", "setting": "[2]; 150 µM, 120 h", "result": "20% and 21% and 23%"},
      {"measurement": "Mean completely Immotile (%)", "setting": "[2]; 200 µM, 0 h", "result": 0, "unit": "%"},
      {"measurement": "Completely Immotile Microfilariae (%)", "setting": "[2]; 200 µM, 0 h", "result": 0, "unit": "%"},
      {"measurement": "Mean completely Immotile (%)", "setting": "[2]; 200 µM, 24 h", "result": 6.67, "unit": "%"},
      {"measurement": "Completely Immotile Microfilariae (%)", "setting": "[2]; 200 µM, 24 h", "result": "7% (2×) and 6%"},
      {"measurement": "Mean completely Immotile (%)", "setting": "[2]; 200 µM, 48 h", "result": 10.67, "unit": "%"},
      {"measurement": "Completely Immotile Microfilariae (%)", "setting": "[2]; 200 µM, 48 h", "result": "12% and 9% and 11%"},
      {"measurement": "Mean completely Immotile (%)", "setting": "[2]; 200 µM, 72 h", "result": 14.33, "unit": "%"},
      {"measurement": "Completely Immotile Microfilariae (%)", "setting": "[2]; 200 µM, 72 h", "result": "16% (2×) and 11%"},
      {"measurement": "Mean completely Immotile (%)", "setting": "[2]; 200 µM, 96 h", "result": 18.67, "unit": "%"},
      {"measurement": "Completely Immotile Microfilariae (%)", "setting": "[2]; 200 µM, 96 h", "result": "19% and 17% and 20%"},
      {"measurement": "Mean completely Immotile (%)", "setting": "[2]; 200 µM, 120 h", "result": 25.33, "unit": "%"},
      {"measurement": "Completely Immotile Microfilariae (%)", "setting": "[2]; 200 µM, 120 h", "result": "24% and 26% (2×)"},
      {"measurement": "effect on microfilariae", "setting": "[2]", "result": "insignificant effect"}
    ]},
    {"smiles": "COc1cc(C)c2c(c1C=O)Oc1c(c(C)c(O)c3c1C(O)OC3=O)OC2=O", "note": "(centres unmarked) [NSC87511]", "values": [
      {"measurement": "IC50", "setting": "[1]", "result": "155 ± 2.2", "unit": "µM"},
      {"measurement": "effect on microfilariae", "setting": "[2]", "result": "insignificant effect"}
    ]}
  ]
}
